Reference: ChEMBL document CHEMBL4507272 (2021)

What was measured:
Settings in all cases: Compound concentration 10.0 uM
[1] = biological target: Muscarinic acetylcholine receptor M2 (Homo sapiens) (UniProt P08172)
[2] = biological target: Muscarinic acetylcholine receptor M3 (Homo sapiens) (UniProt P20309)
[3] = biological target: Histamine H1 receptor (Homo sapiens) (UniProt P35367)
[4] = biological target: 5-hydroxytryptamine receptor 2C (Homo sapiens) (UniProt P28335)
[5] = biological target: Sigma intracellular receptor 2 (Homo sapiens) (UniProt Q5BJF2)
[6] = biological target: 5-hydroxytryptamine receptor 1B (Homo sapiens) (UniProt P28222)
Sequence of 5-hydroxytryptamine receptor 1B (Homo sapiens) (P28222 whole entry): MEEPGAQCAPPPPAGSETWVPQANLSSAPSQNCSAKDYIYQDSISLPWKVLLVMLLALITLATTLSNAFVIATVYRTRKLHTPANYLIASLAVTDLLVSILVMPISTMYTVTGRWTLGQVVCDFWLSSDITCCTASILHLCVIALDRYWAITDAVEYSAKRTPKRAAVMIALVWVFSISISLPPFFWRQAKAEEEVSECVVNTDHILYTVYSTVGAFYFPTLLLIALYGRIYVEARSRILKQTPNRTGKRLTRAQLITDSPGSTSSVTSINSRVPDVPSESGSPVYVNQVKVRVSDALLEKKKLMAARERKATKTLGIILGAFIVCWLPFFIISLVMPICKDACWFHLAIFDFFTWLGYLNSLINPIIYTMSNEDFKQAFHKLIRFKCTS

[7] = biological target: Sodium-dependent serotonin transporter (Homo sapiens) (UniProt P31645)
Sequence of Sodium-dependent serotonin transporter (Homo sapiens) (P31645 whole entry, looked up): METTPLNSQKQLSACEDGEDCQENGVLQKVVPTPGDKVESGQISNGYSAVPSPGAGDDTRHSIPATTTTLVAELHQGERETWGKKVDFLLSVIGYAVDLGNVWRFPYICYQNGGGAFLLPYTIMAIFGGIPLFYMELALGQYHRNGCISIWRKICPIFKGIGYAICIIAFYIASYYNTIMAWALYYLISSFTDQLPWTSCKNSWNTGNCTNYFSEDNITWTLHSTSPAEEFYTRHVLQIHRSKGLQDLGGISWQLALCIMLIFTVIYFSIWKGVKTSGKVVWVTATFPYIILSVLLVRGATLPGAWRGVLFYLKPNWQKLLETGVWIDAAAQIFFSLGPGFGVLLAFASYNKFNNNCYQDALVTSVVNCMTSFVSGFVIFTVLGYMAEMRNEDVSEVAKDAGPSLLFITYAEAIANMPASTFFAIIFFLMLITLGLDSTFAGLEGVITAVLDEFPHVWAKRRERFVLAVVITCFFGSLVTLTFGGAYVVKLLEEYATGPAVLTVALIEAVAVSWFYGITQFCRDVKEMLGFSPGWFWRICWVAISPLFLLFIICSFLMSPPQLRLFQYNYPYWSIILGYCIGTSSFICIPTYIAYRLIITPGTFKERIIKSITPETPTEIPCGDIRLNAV

[8] = biological target: T1, GABA-A receptor; anion channel (Rattus norvegicus) (UniProt O09028+P15431+P18506+P18508+P19969+P20236+P23574+P23576+P28471+P28473+P30191+P62813+P63079+P63138+Q91ZM7+Q9ES14)
[9] = biological target: Beta-3 adrenergic receptor (Homo sapiens) (UniProt P13945)
[10] = biological target: Sodium-dependent noradrenaline transporter (Homo sapiens) (UniProt P23975)
[11] = biological target: D(4) dopamine receptor (Homo sapiens) (UniProt P21917)
[12] = biological target: Alpha-2C adrenergic receptor (Homo sapiens) (UniProt P18825)
Sequence of Alpha-2C adrenergic receptor (Homo sapiens) (P18825 whole entry): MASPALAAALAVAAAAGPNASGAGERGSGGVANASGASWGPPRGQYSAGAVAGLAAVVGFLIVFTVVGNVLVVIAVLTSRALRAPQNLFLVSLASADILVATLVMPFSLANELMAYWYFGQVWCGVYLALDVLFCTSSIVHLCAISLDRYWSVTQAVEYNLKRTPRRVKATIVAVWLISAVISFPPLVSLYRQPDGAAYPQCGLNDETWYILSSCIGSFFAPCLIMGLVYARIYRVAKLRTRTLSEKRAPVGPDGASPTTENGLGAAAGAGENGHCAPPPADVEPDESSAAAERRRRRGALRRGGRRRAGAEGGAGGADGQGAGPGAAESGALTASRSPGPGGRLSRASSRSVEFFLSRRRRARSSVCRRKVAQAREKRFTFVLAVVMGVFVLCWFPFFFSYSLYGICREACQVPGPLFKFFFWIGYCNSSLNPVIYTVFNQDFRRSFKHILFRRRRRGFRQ

[13] = biological target: 5-hydroxytryptamine receptor 1A (Homo sapiens) (UniProt P08908)
[14] = biological target: D(1B) dopamine receptor (Homo sapiens) (UniProt P21918)
[15] = biological target: 5-hydroxytryptamine receptor 5A (Homo sapiens) (UniProt P47898)
Sequence of 5-hydroxytryptamine receptor 5A (Homo sapiens) (P47898 whole entry): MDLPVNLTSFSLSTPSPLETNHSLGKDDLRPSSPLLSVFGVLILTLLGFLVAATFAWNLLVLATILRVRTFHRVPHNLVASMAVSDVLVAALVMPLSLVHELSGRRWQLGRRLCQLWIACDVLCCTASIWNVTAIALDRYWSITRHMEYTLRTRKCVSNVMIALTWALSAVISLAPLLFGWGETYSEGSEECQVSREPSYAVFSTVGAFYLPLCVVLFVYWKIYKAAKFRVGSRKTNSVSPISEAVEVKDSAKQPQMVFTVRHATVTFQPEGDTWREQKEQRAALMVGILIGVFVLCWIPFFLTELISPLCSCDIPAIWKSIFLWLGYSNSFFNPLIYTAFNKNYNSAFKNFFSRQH

[16] = biological target: Alpha-2B adrenergic receptor (Homo sapiens) (UniProt P18089)
[17] = biological target: T1, GABA-A receptor; anion channel (Rattus norvegicus); remark: listed apart in the source
[18] = biological target: Alpha-1B adrenergic receptor (Homo sapiens) (UniProt P35368)
[19] = biological target: D(3) dopamine receptor (Homo sapiens) (UniProt P35462)
[20] = biological target: Alpha-1A adrenergic receptor (Homo sapiens) (UniProt P35348)
[21] = biological target: Muscarinic acetylcholine receptor M4 (Homo sapiens) (UniProt P08173)
[22] = biological target: 5-hydroxytryptamine receptor 7 (Homo sapiens) (UniProt P34969)
[23] = biological target: D(2) dopamine receptor (Homo sapiens) (UniProt P14416)
[24] = biological target: Sodium-dependent dopamine transporter (Homo sapiens) (UniProt Q01959)
Sequence of Sodium-dependent dopamine transporter (Homo sapiens) (Q01959 whole entry): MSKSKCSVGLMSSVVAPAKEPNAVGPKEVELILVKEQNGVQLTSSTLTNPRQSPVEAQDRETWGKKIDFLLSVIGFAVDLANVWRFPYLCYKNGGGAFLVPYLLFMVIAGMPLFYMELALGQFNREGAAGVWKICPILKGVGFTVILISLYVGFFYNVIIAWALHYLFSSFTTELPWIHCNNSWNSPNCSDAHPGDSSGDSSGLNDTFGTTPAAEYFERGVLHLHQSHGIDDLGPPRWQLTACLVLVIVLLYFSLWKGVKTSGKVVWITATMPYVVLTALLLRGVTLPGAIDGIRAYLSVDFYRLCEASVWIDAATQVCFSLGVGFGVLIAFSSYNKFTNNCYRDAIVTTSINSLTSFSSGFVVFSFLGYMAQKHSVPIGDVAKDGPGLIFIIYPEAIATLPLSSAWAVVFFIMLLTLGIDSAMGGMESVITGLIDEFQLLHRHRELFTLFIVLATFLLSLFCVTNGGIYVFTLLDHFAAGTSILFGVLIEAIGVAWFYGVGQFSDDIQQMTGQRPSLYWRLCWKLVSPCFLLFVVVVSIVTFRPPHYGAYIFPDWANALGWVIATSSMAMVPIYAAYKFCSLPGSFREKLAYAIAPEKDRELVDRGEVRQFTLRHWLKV

[25] = biological target: 5-hydroxytryptamine receptor 3A (Homo sapiens) (UniProt P46098)
[26] = biological target: Alpha-1D adrenergic receptor (Homo sapiens) (UniProt P25100)
Sequence of Alpha-1D adrenergic receptor (Homo sapiens) (P25100 whole entry): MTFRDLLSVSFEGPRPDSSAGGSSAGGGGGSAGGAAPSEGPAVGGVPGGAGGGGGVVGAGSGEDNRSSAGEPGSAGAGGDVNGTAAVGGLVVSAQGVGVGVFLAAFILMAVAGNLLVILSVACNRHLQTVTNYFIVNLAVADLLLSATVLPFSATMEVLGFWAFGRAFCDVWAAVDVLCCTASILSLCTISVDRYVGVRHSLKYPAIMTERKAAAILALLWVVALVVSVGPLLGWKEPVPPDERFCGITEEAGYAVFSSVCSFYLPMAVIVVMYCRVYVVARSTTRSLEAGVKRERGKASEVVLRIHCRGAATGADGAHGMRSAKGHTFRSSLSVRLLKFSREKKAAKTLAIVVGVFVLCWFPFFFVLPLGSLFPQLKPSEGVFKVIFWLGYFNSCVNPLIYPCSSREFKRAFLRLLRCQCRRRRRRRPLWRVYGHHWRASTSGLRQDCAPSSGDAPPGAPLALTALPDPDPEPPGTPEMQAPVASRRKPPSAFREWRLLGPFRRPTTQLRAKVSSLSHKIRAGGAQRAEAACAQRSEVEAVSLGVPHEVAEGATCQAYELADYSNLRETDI

[27] = biological target: Muscarinic acetylcholine receptor M5 (Homo sapiens) (UniProt P08912)
[28] = biological target: Beta-2 adrenergic receptor (Homo sapiens) (UniProt P07550)
Sequence of Beta-2 adrenergic receptor (Homo sapiens) (P07550 whole entry, looked up): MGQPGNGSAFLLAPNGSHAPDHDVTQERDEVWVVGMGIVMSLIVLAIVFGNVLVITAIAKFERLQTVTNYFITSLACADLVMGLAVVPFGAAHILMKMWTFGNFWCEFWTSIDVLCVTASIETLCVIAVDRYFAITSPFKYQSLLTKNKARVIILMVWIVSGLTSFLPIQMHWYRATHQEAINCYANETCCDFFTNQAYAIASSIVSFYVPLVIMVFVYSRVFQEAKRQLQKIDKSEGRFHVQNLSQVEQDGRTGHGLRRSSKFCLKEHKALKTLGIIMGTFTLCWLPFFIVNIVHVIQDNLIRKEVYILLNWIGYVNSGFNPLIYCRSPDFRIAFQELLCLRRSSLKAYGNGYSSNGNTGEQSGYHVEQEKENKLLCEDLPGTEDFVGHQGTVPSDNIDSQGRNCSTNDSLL

[29] = biological target: Mu-type opioid receptor (Homo sapiens) (UniProt P35372)
[30] = biological target: Histamine H2 receptor (Homo sapiens) (UniProt P25021)
[31] = biological target: 5-hydroxytryptamine receptor 2B (Homo sapiens) (UniProt P41595)
Sequence of 5-hydroxytryptamine receptor 2B (Homo sapiens) (P41595 whole entry): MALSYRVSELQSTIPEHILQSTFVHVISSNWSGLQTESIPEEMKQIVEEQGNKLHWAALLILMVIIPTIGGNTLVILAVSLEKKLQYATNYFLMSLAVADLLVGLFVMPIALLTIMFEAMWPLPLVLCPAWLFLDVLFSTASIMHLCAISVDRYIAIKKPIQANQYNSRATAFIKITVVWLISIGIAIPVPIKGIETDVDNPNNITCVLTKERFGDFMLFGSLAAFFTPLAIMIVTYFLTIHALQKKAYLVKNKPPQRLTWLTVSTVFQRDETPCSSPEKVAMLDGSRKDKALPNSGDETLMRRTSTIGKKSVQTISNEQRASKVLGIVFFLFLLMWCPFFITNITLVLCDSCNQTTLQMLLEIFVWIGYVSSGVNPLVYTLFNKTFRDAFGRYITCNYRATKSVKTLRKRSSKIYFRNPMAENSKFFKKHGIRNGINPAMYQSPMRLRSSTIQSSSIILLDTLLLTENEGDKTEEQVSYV

[32] = biological target: Kappa-type opioid receptor (Homo sapiens) (UniProt P41145)
[33] = biological target: 5-hydroxytryptamine receptor 6 (Homo sapiens) (UniProt P50406)
[34] = biological target: Delta-type opioid receptor (Homo sapiens) (UniProt P41143)
[35] = biological target: 5-hydroxytryptamine receptor 2A (Homo sapiens) (UniProt P28223)
[36] = biological target: Histamine H4 receptor (Homo sapiens) (UniProt Q9H3N8)
[37] = biological target: Alpha-2A adrenergic receptor (Homo sapiens) (UniProt P08913)
Sequence of Alpha-2A adrenergic receptor (Homo sapiens) (P08913 whole entry): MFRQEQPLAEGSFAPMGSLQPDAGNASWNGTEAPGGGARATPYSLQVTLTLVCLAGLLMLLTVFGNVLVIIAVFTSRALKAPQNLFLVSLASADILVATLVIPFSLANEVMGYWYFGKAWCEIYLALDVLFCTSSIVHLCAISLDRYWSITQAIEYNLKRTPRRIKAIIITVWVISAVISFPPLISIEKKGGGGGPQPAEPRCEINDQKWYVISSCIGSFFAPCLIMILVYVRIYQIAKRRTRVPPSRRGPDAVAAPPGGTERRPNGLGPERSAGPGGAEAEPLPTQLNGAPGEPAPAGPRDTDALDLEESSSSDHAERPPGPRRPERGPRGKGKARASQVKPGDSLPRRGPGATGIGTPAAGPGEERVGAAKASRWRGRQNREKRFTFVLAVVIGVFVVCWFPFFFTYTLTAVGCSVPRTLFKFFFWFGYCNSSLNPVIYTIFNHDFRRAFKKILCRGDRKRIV

[38] = biological target: Beta-1 adrenergic receptor (Homo sapiens, UniProt P08588)
Sequence of Beta-1 adrenergic receptor (P08588 whole entry, looked up): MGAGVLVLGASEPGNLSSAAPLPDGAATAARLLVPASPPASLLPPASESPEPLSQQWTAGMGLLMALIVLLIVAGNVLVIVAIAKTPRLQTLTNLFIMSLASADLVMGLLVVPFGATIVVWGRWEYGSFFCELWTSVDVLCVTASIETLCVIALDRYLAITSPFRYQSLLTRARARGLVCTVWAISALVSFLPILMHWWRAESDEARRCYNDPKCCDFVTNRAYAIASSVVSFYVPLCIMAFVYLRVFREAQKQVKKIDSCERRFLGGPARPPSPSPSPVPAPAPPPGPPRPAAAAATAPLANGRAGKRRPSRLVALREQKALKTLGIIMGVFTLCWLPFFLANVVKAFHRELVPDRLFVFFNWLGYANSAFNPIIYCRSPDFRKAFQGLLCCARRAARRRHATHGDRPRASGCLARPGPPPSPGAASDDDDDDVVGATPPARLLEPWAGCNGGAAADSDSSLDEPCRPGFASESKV

Measured: inhibition

CC(=O)C1=C(C)N(c2cccc(C(F)(F)F)c2)C(=O)N[C@H]1c1ccc(C#N)nc1
inactive: [1] -9.21% | [2] 27.3% | [3] 5.28% | [4] 29% | [5] 20.9% | [6] 6.75% | [7] 2.85% | [8] -5.84% | [9] 17.2% | [10] -8.06% | [11] 5.84% | [12] 11% | [13] 3.63% | [14] 5.12% | [15] 8.86% | [16] 11.8% | [17] 14.7% | [18] -8.1% | [19] -6.43% | [20] -5.26% | [21] 2.88% | [22] 13.9% | [23] -1.53% | [24] 1.88% | [25] 23.7% | [26] 7.7% | [27] 2.19% | [28] 21.6% | [29] 2.02% | [30] 3.4% | [31] 15.8% | [32] -8.67% | [33] 14.9% | [34] 4.95% | [35] -6.25% | [36] -0.78% | [37] -8.89% | [38] 8.09%
